Measurements from patent US20180320177A1, “COMPOSITIONS AND METHODS FOR THE TREATMENT OF LIVER FIBROSIS” (UNIVERSITY OF CONNECTICUT, priority 2015, published 2018).

Key:
TIC cells = experiment: TIC cell spheroid assay; assay type: cell-based; details: TIC cells with stable HMGB2 knockdown (FIG. 7F)
Method: TIC cells were trypsinized into single cells and 1000 cells were suspended in serum free TIC medium with 1% methylcellulose supplemented with B27, 20 ng/ml EGF and 20 ng/ml FGF in each well of 96-well ultralow attachment plate.

HMGB2 [1] = molecular target: T1, HMGB2 (Homo sapiens, UniProt P26583); experiment: Co-immunoprecipitation of acetylated / phosphorylated HMGB2 in LX-2 cells; assay type: cell-based; set-up: Total protein lysates were prepared from livers and cells in lysis buffer; endogenous in cells; host or cells: LX-2; details: CCl4 and ICM for 24 hours (FIG. 5D)
T1 sequence (P26583 1-209): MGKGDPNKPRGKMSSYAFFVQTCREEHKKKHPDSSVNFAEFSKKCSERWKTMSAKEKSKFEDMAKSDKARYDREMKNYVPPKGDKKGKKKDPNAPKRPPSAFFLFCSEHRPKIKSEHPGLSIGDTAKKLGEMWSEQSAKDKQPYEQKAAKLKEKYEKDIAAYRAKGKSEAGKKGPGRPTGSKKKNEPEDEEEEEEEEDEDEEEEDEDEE
Method: Co-immunoprecipitation experiments: LX-2 cells were transfected with a vector expressing HA-CBP with X-treineGENE™ transfection reagent (Sigma). 24 hours later, cells were treated with CCl4 and ICM for 24 hours. Cells then washed 2 times with cold phosphate buffered saline (PBS), lysed in buffer (50 mM Tris HCl, pH 7.4, 150 mM NaCl, 1 mM EDTA, and 1% TRITON X-1.00, and protease inhibitor). Protein extracts were incubated with anti-phosphoserin antibody or anti-acetylated lysin antibody (Cell signaling technology) overnight at 4° C. Protein A/G beads were added to the supernatants and incubated for 4 hours at 4° C. The beads were washed five times in NP-40 lysis buffer. Immune complexes were eluted by SDS—sample buffer, resolved on 10% SDS-PAGE and proceeded for immunoblotting with the indicated antibody.

HMGB2 [2] = molecular target: T1, HMGB2; experiment: Western blot of HMGB2 protein in LX-2 and Huh7 cells treated with ICM; assay type: cell-based; set-up: endogenous in cells; host or cells: LX-2, Huh7; details: for HMGB2 protein: fresh media every day for 3 days (FIG. 18 left)
Method: Western Blotting: Total protein lysates were prepared from livers and cells in lysis buffer containing 50 mM Tris, pH 8.0, 1% Nonidet™ P-40, 150 mM NaCl, 0.5% sodium deoxycholate, 0.1% SDS with protease inhibitors (Thermo Fisher Scientific) and subjected to immunoblotting. Nuclear and cytoplasmic subcellular fractions were prepared using NE-PER nuclear and cytoplasmic extraction reagents (Pierce) according to the manufacturer's instructions. The blot was incubated with a primary antibody, followed by a secondary antibody conjugated to horseradish peroxidase. ECL kit (Pierce) was used to detect the reactivity. The following antibodies were obtained from Cell Signaling Technology: HMGB2, HMGB1, AKT, p-AKT, mTOR, p-mTOR, ERK1/2, pERK1/2, Raptor, Rictor, p53, p21, p-Bad, Smad4, p-Smad2/3, Lamin A/C, a-SMA, MMP2, MMP9, TIMP1, RhoA, Rho-GTP, Cdc42, Rac1/2/3. Anti-HA antibody and anti-beta actin antibody were purchased from Sigma and Santa Cruz Biotechnology, respectively.
Cell Lines The LX-2 human stellate cell line was maintained in Dulbecco's Modified Eagle's Medium (DMEM) supplemented with 2% fetal bovine serum (FBS), 100 IU/ml penicillin, and 100 μg/ml streptomycin. Human hepatocellular carcinoma (HCC) MHCC97H cells were maintained in DMEM supplemented with 10% FBS, 100 IU/ml penicillin, and 100 μg/ml streptomycin, 1 mM HEPES, 1 mM sodium pyruvate, 2 mM L-glutamine. Tumor-initiating (TIC) cells were obtained from Dr. Hidekazu Tsukamoto at University of Southern California and were maintained in 1:1 DMEM:F12 supplement with 100 U/ml penicillin and 100 μg/ml streptomycin, 2 mM glutamine, 20 ng/ml mouse EGF, 10 nM dexamethasone, 1× embryomax nucleotides. All the cells were maintained at 37° C. humidified atmosphere with 5% CO2. TIC cells were infected with Hmgb2 shRNA lentivirus for 48 hr, and treated with 500 ng/ml puromycin for 2 weeks. The stable cells were used for migration and invasion assay, as well as western blot.

HMGB1 and HMGB2 = details: neuroinflammation model; cited from earlier work

| Compound | spheroid size (TIC cells) | HMGB2 phosphorylation by CCl4 (HMGB2 [1]) | HMGB2 acetylation by CBP/CCl4 (HMGB2 [1]; HA-CBP) | HMGB2 protein (HMGB2 [2]; Huh7 cells) | cytoplasm HMGB2 protein (HMGB2 [2]; LX2 cells (FIG. 5C)) | HMGB2 protein (HMGB2 [2]; LX-2 cells) | inhibitor profile HMGB1 / HMGB2 (HMGB1 and HMGB2) |
| --- | --- | --- | --- | --- | --- | --- | --- |
| shHMGB2: small hairpin RNA against HMGB2 (SEQ ID NO: 8), delivered by AAV or lentivirus (CCGGGCTCAACATTAGCTTCAGTATCTCGAGATACTGAAGCTAATGTTGAGCTTTTTG) | decreased spheroid size |  |  |  |  |  |  |
| CC1(C)Oc2cc(O)ccc2C2C1=CCn1c(=O)n(-c3ccccc3)c(=O)n12 (stereo not shown) [ICM, inflachromene] |  | decreases | decreases | dose-dependently decreased | reduces cytoplasm HMGB2 protein | dose-dependently decreased | dual inhibitor of both HMGB1 and HMGB2 |
